Results: US5912224A, “Methods and compositions for enhancing cellular response to TGF-β ligands” (priority 1997, dated 1999)

Experiments:
FKBP12 = FKBP12 (Homo sapiens, UniProt P62942); conditions: cited from earlier work
Mv1Lu cells [1] = test: Transcriptional response assay (p3TP-lux luciferase reporter); format: cell-based, mink
Excerpt: Two TGF-β responsive mink lung epithelial cell lines Mv1Lu and L17, the latter being a highly transfectable clone of R1B lacking the functional type I receptor of TGF-β, were used in a transcriptional response employing a DEAE-dextran method (Bassing, C. et al., Science 263:87-89 (1994); Wrana, J. L. et al., Nature 370:341-47 (1994)). Briefly, cells grown to 50% confluency in 6-well plates were transiently transfected with the transcriptional response reporter construct p3TP-lux alone or together with different constructs of the type I receptor. Sixteen to twenty hours after transfection, cells were treated with TGF-β in 0.2% serum medium for 24 to 28 hours. For testing the effect of FK506 derivative 15-O-desmethyl FK520, cells were treated with the drug beginning two hours prior to the addition of TGF-β. Cell lysates were made and luciferase activity was measured in a luminometer. Each assay was carried out in duplicate or triplicate.
To distinguish between these possibilities, both 15-O-desmethyl-FK520 and L685,818 were used to test the role of FKBP12 in the signaling events mediated by TGF-β, and yielded very similar results; here we report the results from using 15-O-desmethyl-FK520. […]

Mv1Lu cells [2] = test: Growth inhibition assay; format: cell-based, mink; conditions: for growth inhibition, macrolide alone: each alone, added to Mv1Lu cells
Experimental: Growth Inhibition Assay Mv1Lu cells were seeded in 12-well plate at 3×10^4 cells/well and incubated overnight. Cells were treated with 15-O-demethyl FK520 for 2 hours and with TGF-β for 36 to 40 hours in the presence of the drug. Cells were trypsinized, and cell numbers were determined in a Coulter counter.
To distinguish between these possibilities, both 15-O-desmethyl-FK520 and L685,818 were used to test the role of FKBP12 in the signaling events mediated by TGF-β, and yielded very similar results; here we report the results from using 15-O-desmethyl-FK520. In the absence of 15-O-desmethyl-FK520, TGF-β elicits two cellular responses when added into the mink lung epithelial cell line Mv1Lu: the growth inhibition response, which can be detected by a decrease in cell number, and the gene activation response, which can be measured by an increase in the luciferase activities resulting from the activation of a transfected luciferase reporter gene regulated by a Plasminogen Activator Inhibitor (PAI) promotor (Wrana, J. L. et al., Cell 71:1003-1014 (1992)). […] Therefore, FKBP12 binding to the TGF-β type I receptor is not necessary, but is inhibitory to the type I receptor mediated signaling, and release of FKBP12 is not sufficient for complete activation of the downstream signaling events in the absence of TGF-β.

[3] = in vivo; cited from earlier work
Mullerian duct = test: Urogenital ridge organ culture assay (MIS-mediated Mullerian duct regression); set-up: species or system rat
Experimental: The organ culture assay was carried out as described previously (Donahoe, P. K. et al., J. Surg. Res. 23:141-148 (1977)). Briefly, urogenital ridges containing Wolffian and Mullerian ducts from 14.5 day female rat fetuses were maintained in CMRL media with 10% fetal calf serum, 100 units/ml penicillin, and 100 μg/ml streptomycin. To test the effect of the non-functional derivatives of FK506 (L685,818 or 15-O-desmethyl FK520) on Mullerian duct regression, the specimens were treated with the indicated doses of MIS in the presence or absence of the non-functional derivatives of FK506 and incubated at 37° C. in 5% CO2 and 95% air. After 72 hours, the specimens were fixed in formalin, dehydrated in an alcohol series, cleared in xylene, embedded in paraffin, cut in serial cross sections, stained with hematoxylin and eosin and graded for regression of the Mullerian duct as described (Donahoe, P. K. et al., J. Surg. Res. 23:141-148 (1977)).
Since FKBP12 binds to all known type I receptors, its inhibitory activity should therefore also be detected in the signaling events mediated by other TGF-β family members. Mullerian Inhibiting Substance (MIS) is a unique member of the TGF-β family known to be responsible for regression of the Mullerian duct in fetal males through an active apoptotic process (Jost, A., Arch. Anat. Micro. Morph. Exp. 36:271-315 (1947); Price, J. M. et al., Am. J. Anat. 149:353-376 (1977); Trelstad, R. L. et al., Devl. Bio. 92:27-40 (1982)). The activity of MIS in the regression of the Mullerian ducts can be measured directly in an organ culture assay (Donahoe, P. K. et al., J. Surg. Res. 23:141-148 (1977)). In this assay, urogenital ridges containing both the Wolffian duct and the Mullerian duct are isolated from fourteen and a half day female fetuses. […] When 1 μg MIS was added into the organ culture, grade 1.5 regression was observed, which histologically corresponds to a condensation of the mesenchymal cells surrounding a smaller and irregularly shaped Mullerian duct (FIG. 5, A, top panel). […] We further tested the effect of 1 μM 15-O-desmethyl-FK520 on the regression activities of different doses of MIS (FIG. 5, B).

[4] = system: FKBP12 (T7 tagged) binding to TGF-β type I receptor (R4); test: R4/FKBP12 co-immunoprecipitation competition in transfected COS cells; format: cell-based; conditions: for block of R4/FKBP12 co-immunoprecipitation: 100 nM derivative, COS cells transfected with R4 and T7 tagged FKBP12
Experimental: For testing FKBP12 binding to ligand-free TGF-β type I receptor (either wild type or mutants) by co-immunoprecipitations, COS1 cells grown in P-100 dishes were transfected with 4 μg of T7 tagged FKBP12 in pCMV8 and 6 μg of R4 (or mutant R4) in pCMV6 using the DEAE-dextran method. In the case of using metabolic labeling to detect co-precipitation of FKBP12 and R4, 40-44 hours after transfection COS1 cells were incubated for 4 hours with 50 μCi/ml [^35 S]-methionine in methionine-free media and lysed in lysis buffer (20 mM Tris-HCl [pH 7.4], 150 mM NaCl, 0.5% Triton X-100, 1 mM EDTA) in the presence of a mixture of protease inhibitors. Anti-T7 monoclonal antibody (5 μl) was added into 200 μl of cell lysates, incubated at 4° C. for 2 hours, absorbed with protein A sepharose beads, and washed three times with wash buffer (20 mM Tris-HCl [pH 7.4], 150 mM NaCl, 0.1% Triton X-100, 1 mM EDTA). Proteins were eluted from the sepharose beads using 2× SDS-PAGE denaturing sample buffer, separated on 15% SDS-PAGE. The gel was treated with Autofluor (National Diagnostic), dried and subjected to autoradiography for 48 hours. In the case of using Western blot to detect co-precipitated T7 tagged FKBP12, cell lysates were immunoprecipitated with 10 μl of VPN antiserum, which recognizes a juxtamembrane region of the TGF-β type I receptor (Franzen, P. et al., Cell 75:681-692 (1993)). The immunoprecipitates were separated on 15% SDS-PAGE, electrotransferred onto nitrocellulose membrane, blotted using anti-T7 monoclonal antibody, and detected by ECL (Amersham).
For testing the effect of non-functional FK506 derivatives (L685,818 from Merck Laboratories and 15-O-desmethyl-FK520 from Sandoz) on FKBP12 binding to R4, 2 hours after transfection COS1 cells were treated with the derivatives for […] and then labeled for 4 hours with 50 μCi/ml [^35 S]-methionine in methionine-free media 40-44 hours after transfection. Cells were then lysed and immunoprecipitation was carried out as described above. […]

[5] = biological target: T1, FKBP12 binding to R4C (cytoplasmic domain of TGF-β type I receptor) (Rattus norvegicus, UniProt Q62658); conditions: excess macrolide, yeast cells; cited from earlier work
T1 construct: host or cells: yeast (two-hybrid)

[6] = biological target: FKBP12 mutant (G89P, 190K) (Homo sapiens, UniProt P62942, G90P/I91K); conditions: mutations within the 80s loop; cited from earlier work
[7] = system: FKBP12 mutant D37G (mFKBP12); conditions: point mutation within the macrolide binding site; cited from earlier work
[8] = macrolide up to 1 μM together with TGF-β 15 pM

Sequence of FKBP12 (P62942 whole entry): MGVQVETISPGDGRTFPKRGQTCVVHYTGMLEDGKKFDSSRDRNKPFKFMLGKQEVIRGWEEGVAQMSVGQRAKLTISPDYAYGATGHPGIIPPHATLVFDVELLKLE
Sequence of FKBP12 mutant (G89P, 190K) (P62942 2-108 G90P/I91K limits assumed): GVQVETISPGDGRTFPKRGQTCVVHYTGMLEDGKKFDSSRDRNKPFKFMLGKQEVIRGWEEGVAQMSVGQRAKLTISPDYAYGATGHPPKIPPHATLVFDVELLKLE
T1 sequence (Q62658 whole entry, the tested form may be a part): as the sequence (P62942 whole entry) above, with P10S, M50T, T76I counted along it

SMILES	affinity for FKBP12 (FKBP12)	gene activation response, macrolide alone (Mv1Lu cells [1]; 1 μM alone, no TGF-β)	TGF-β gene activation response (luciferase activity) (Mv1Lu cells [1]; [8])	growth inhibition response, macrolide alone (Mv1Lu cells [2]; 1 μM alone, no TGF-β)	TGF-β growth inhibition response (decrease in cell number) (Mv1Lu cells [2]; [8])	toxicity in animal models [3]	Mullerian duct regression (Mullerian duct; 1 μM macrolide alone, no MIS)	Mullerian duct regression grade (0 no regression to 5 complete regression) (Mullerian duct; 1 μM macrolide together with 1 μg MIS)	regression activity of 0.1 μg MIS in presence of macrolide (Mullerian duct; 1 μM macrolide with 0.1 μg MIS, compared with 1 μg MIS alone)	block of R4/FKBP12 co-immunoprecipitation [4]	competition for binding of R4C to FKBP12 [5]	binding to FKBP12 (G89P, 190K) [6]	growth inhibition, macrolide alone (Mv1Lu cells [2])	binding to FKBP12 D37G [7]	Mullerian duct regression grade (Mullerian duct; 500 nM macrolide alone)	Mullerian duct regression (Mullerian duct; 500 nM macrolide together with 2 μg MIS)	block of R4 interaction with FKBP12 ([4]; 50 nM, COS cells, FIG. 4A lane 3)
CC[C@@H]1/C=C(\C)C[C@H](C)C[C@H](O)[C@H]2O[C@@](O)(C(=O)C(=O)N3CCCC[C@H]3C(=O)O[C@H](/C(C)=C/[C@@H]3CC[C@@H](O)[C@H](OC)C3)[C@H](C)[C@@H](O)CC1=O)[C@H](C)C[C@@H]2OC [15-O-desmethyl-FK520]	binds with high affinity	Neither of the responses were detected	greatly enhanced	Neither of the responses were detected	greatly enhanced	do not induce toxicity	no regression activity was detected	5 grade	more biological activity than 1 μg MIS alone	able to block R4/FKBP12 co-immunoprecipitation	–	–	–	–	–	–	–
C=CC[C@@H]1/C=C(\C)C[C@H](C)C[C@H](OC)[C@H]2O[C@@](O)(C(=O)C(=O)N3CCCC[C@H]3C(=O)O[C@H](/C(C)=C/[C@@H]3CC[C@@H](O)[C@H](OC)C3)[C@H](C)[C@@H](O)CC1=O)[C@H](C)C[C@@H]2OC [FK506]	bind strongly	–	–	–	–	–	–	–	–	–	could partially compete	without affecting	exhibited growth inhibition activities	abolishes FKBP12 binding	–	–	–
CC[C@@H]1/C=C(\C)C(O)[C@H](C)C[C@H](OC)[C@H]2O[C@@](O)(C(=O)C(=O)N3CCCC[C@H]3C(=O)O[C@H](/C(C)=C/[C@@H]3CC[C@@H](O)[C@H](OC)C3)[C@H](C)[C@@H](O)CC1=O)[C@H](C)C[C@@H]2OC (stereo partly drawn) [L685,818]	binds with high affinity	–	–	–	–	do not induce toxicity	–	–	–	able to block R4/FKBP12 co-immunoprecipitation	–	–	–	–	1 Grade	complete regression	block R4 interaction with FKBP12
CO[C@H]1C[C@@H]2CC[C@@H](C)[C@@](O)(O2)C(=O)C(=O)N2CCCC[C@H]2C(=O)O[C@H]([C@H](C)C[C@@H]2CC[C@@H](O)[C@H](OC)C2)CC(=O)[C@H](C)/C=C(\C)[C@@H](O)[C@@H](OC)C(=O)[C@H](C)C[C@H](C)/C=C/C=C/C=C/1C [rapamycin]	bind strongly	–	–	–	–	–	–	–	–	–	–	–	exhibited growth inhibition activities	abolishes FKBP12 binding	–	–	–
